Measurements published in patent publication US8895504B2, “Amylin derivatives” (priority 2008, dated 2014).
*1 amine or outer side, *2 acyl side, *3 side chain or, on linkers, in order; H or OH if unused. Where a SMILES comes first, the peptide text is derived from it. Bridges are numbered along the chain shown (N, C = ends). The star is where a group is joined. C20 diacid = O=C(O)CCCCCCCCCCCCCCCCCCC(=O)*; γGlu = O=C(O)[C@H](CCC(=O)[*:2])N[*:1]

Experiments:
food intake = experiment: Pharmacological Assay (I) - efficacy testing on appetite, ad libitum fed rat model; assay type: in vivo, Sprague Dawley (SD) rats; settings: 30 nmol/kg vs vehicle, ad libitum fed rats, n=5-7, 0-48 hours
Description: Assays Pharmacological Assay (I)—Experimental Protocol for Efficacy Testing on Appetite with an Amylin Derivative, Using an Ad Libitum Fed Rat Model. Sprague Dawley (SD) rats from Taconic Europe, Denmark are used for the experiments. The rats have a body weight 200-250 g at the start of experiment. The rats arrive at least 10-14 days before start of experiment to allow acclimatization to experimental settings. During this period the animals are handled at least 2 times. After arrival rats are housed individually for one week in a reversed light/dark phase (meaning that lights are off during daytime and on during nighttime) for two weeks. Since rats are normally active and eat their major part of their daily food intake during the dark period, rats are dosed in the morning right before lights are turned off. This set-up results in the lowest data variation and highest test sensitivity. The experiment is conducted in the rats' home cages and rats have free access to food and water throughout the acclimatization period and the experiment period. Each dose of derivative is tested in a group of 5-8 rats. A vehicle group of 6-8 rats is included in each set of testing. Rats are dosed once according to body weight with a 0.01-3 mg/kg solution administered intraperitoneally (ip), orally (po) or subcutaneously (sc). The time of dosing is recorded for each group. After dosing, the rats are returned to their home cages, where they then have access to food and water. The food consumption is recorded individually continuously by on-line registration or manually every hour for 7 hours, and then after 24 h and sometimes 48 h. At the end of the experimental session, the animals are euthanized. The individual data are recorded in Microsoft excel sheets. Outliers are excluded after applying the Grubbs statistical evaluation test for outliers, and the result is presented graphically using the GraphPad Prism program.

[1] = Assay (VI) PK - determination of T½ in rat; assay type: in vivo; settings: sc, terminal plasma half-life, subcutaneous, approx 20 nmol/kg, male Sprague Dawley rats
Description: Assay (VI) PK—Determination OF T½ in Rat
T½ is the terminal half-life=ln 2/λz of a compound in plasma. λz is the first order rate constant associated with the terminal (log-linear) portion of the plasma concentration-time curve and is estimated by linear regression of time vs. log concentration.
T½ values of the amylin analogues of the invention is determined by pharmacokinetic studies in Sprague Dawley male rats, from Taconic Europe and the principles of laboratory animal care are followed.
An acclimatization period of approximately 7 days was allowed before the animals entered the study. At start of the acclimatization period the rats were in the weight range of 300-400 g. The rats had permanent catheters inserted in a. carotis which were used for blood sampling.
The studies were conducted in an animal room which was illuminated to give a cycle of approx 12 hours light and 12 hours darkness. The animals were housed individually due to the catheters and had food and water ad lib. The animals were weighed on the days of dosing.
In the present studies the test substances were administered subcutaneously in approx 20 nmol/kg dose. The animals received a single subcutaneous injection to the neck using a 25 G needle with syringe. Each test substance was given to typically three but in some cases two or four animals.
A full plasma concentration-time profile, employing 8-10 sampling points, was obtained from each animal. In example blood samples were collected according to the following schedule:
After subcutaneous administration:
Predose (0), 0.5, 1, 1.5, 2, 4, 6, 12, 24, 48 and 72 hours after injection. At each sampling time, 0.08 to 0.10 ml of blood was drawn from each animal. The blood samples were taken via the catheter.
The blood samples were collected into EDTA test tubes. Blood samples were kept on ice for max 20 min. before centrifugation. Plasma was separated using centrifugation (i.e. at 4° C., 10 min., 1500 G) and was immediately transferred to Micronic tubes or PCR plates. Approximately 40 μl plasma was transferred and was stored at −20° C. until assayed. The plasma samples were assayed for the content of amylin using an ELISA assay.
The plasma concentration-time profiles were analysed by a non-compartmental pharmacokinetic analysis (NCA) using WinNonlin Professional 5.0 (Pharsight Inc., Mountain View, Calif., USA). NCA was performed using the individual plasma concentration-time profiles from each animal. T½ is the terminal half-life=ln 2/λz and was determined from λz, the first order rate constant associated with the terminal (log-linear) portion of the curve, estimated by linear regression of time vs. log concentration.
ELISA Plasma Assay for Amylin Quantification
The human amylin ELISA is a monoclonal antibody-based sandwich immunoassay for determining amylin levels in human plasma. The capture antibody recognizes human amylin, amylin acid (deamidated amylin), a 1-20 fragment of amylin, but not reduced amylin. The detection antibody binds to reduced or unreduced human amylin but not amylin acid and is complexed with streptavidin-alkaline phosphatase. The substrate, 4-methylumbelliferyl phosphate, is applied to the completed sandwich and the fluorescent signal, monitored at 355 nm/460 nm, is proportional to the amount of amylin present in the sample.

[2] = target: T1, Amylin 3(a) receptor (human calcitonin receptor (CTa) and RAMP-3) (Homo sapiens, UniProt O60896+P30988); experiment: Luciferase assay (III), BHK Amylin 3(a)//CRE-luc cells; assay type: cell-based; settings: BHK cells with Amylin 3(a) receptor and CRE luciferase reporter, 4 hours incubation; read-out: Potency Luciferase
T1 construct: expressed in transfected cells; host or cells: BHK570 cells, stably transfected with a CRE-luciferase reporter
T1 sequence (O60896 24-148): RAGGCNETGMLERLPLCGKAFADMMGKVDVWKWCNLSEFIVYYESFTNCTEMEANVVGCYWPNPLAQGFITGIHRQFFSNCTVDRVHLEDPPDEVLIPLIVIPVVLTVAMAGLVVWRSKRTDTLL
T1 sequence (P30988 25-474): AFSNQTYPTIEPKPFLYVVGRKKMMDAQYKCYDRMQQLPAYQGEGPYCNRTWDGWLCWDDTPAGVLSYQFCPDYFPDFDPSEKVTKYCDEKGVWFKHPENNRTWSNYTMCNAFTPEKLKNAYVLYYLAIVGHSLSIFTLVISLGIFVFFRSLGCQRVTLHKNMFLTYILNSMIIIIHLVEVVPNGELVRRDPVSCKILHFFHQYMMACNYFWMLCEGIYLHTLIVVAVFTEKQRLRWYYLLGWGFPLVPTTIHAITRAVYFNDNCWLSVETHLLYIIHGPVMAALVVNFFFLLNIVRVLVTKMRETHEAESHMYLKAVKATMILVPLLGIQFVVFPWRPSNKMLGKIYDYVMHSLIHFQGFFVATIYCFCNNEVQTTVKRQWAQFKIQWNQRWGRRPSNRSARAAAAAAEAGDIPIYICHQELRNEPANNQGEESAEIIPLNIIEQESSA
Method in brief: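 BHK570 cells stably expressing CTa, RAMP-3 and a CRE-luciferase reporter, seeded at about 20,000 cells/well and grown overnight. Cells were exposed to standard or sample for 4 h at 37° C in phenol red-free DMEM with 10% FBS and 10 mM Hepes, pH 7,4. Luminescence was read after 30 min LucLite at room temperature.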

- half-life [1]: 14 h
- EC50 [2]: 60 pM
SMILES: CC[C@H](C)[C@H](NC(=O)[C@@H]1CCCN1C(=O)CNC(=O)[C@H](Cc1ccccc1)NC(=O)[C@H](CC(N)=O)NC(=O)[C@H](CC(N)=O)NC(=O)[C@H](CO)NC(=O)[C@H](CO)NC(=O)[C@H](Cc1c[nH]cn1)NC(=O)[C@H](Cc1c[nH]cn1)NC(=O)[C@H](CC(C)C)NC(=O)[C@H](Cc1ccccc1)NC(=O)[C@H](CC(N)=O)NC(=O)[C@H](C)NC(=O)[C@H](CC(C)C)NC(=O)[C@H](CCCNC(=N)N)NC(=O)[C@H](CCC(N)=O)NC(=O)[C@@H](NC(=O)[C@H](C)NC(=O)[C@@H]1CSSC[C@H](NC(=O)[C@H](Cc2c[nH]cn2)NC(=O)[C@H](Cc2c[nH]cn2)NC(=O)[C@H](Cc2c[nH]cn2)NC(=O)CC[C@H](NC(=O)CCCCCCCCCCCCCCCCCCC(=O)O)C(=O)O)C(=O)N[C@@H](CC(N)=O)C(=O)N[C@@H]([C@@H](C)O)C(=O)N[C@@H](C)C(=O)N[C@@H]([C@@H](C)O)C(=O)N1)[C@@H](C)O)C(=O)N[C@@H](CC(C)C)C(=O)N1CCC[C@H]1C(=O)N1CCC[C@H]1C(=O)N[C@H](C(=O)N[C@@H](CC(N)=O)C(=O)N[C@H](C(=O)NCC(=O)N[C@@H](CO)C(=O)N[C@@H](CC(N)=O)C(=O)N[C@H](C(=O)N[C@@H](Cc1ccc(O)cc1)C(N)=O)[C@@H](C)O)C(C)C)[C@@H](C)O [Example 39, N-alpha-[(S)-4-Carboxy-4-(19-carboxynonadecanoylamino)butyryl]-His-His-[His1,His17]-pramlintide] ({C20 diacid-γGlu}-HHHCNTATCATQRLANFLHHSSNNFGPILPPTNVGSNTY-NH2; disulfide 4-9)
- food intake over a period of 48 hours (food intake): effectively reducing food intake
